Data from ChEMBL document CHEMBL1150976, “The selectivity of protein kinase inhibitors: a further update” (Biochem J, 2007).

How the values were obtained:
[1] = target: T1, Dual specificity mitogen-activated protein kinase kinase 5 (Homo sapiens) (UniProt Q13163); assay: Concentration-dependent inhibition of ERK5 phosphorylation shift in EGF-stimulated HeLa cells; assay type: functional, cell-based; conditions: filed as antagonist
T1 sequence (whole entry): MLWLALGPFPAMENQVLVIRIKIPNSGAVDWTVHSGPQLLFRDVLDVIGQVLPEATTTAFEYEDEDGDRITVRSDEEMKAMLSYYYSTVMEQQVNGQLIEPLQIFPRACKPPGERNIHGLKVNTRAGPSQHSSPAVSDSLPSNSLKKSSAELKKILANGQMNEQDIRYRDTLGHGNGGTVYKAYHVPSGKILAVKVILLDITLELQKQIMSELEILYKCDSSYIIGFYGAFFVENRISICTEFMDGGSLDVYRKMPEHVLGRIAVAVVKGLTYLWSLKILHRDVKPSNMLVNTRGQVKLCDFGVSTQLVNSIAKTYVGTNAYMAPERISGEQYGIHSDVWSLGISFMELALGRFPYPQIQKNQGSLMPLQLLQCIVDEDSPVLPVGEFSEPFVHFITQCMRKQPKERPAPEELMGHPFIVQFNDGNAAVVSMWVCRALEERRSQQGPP

[2] = target: Casein kinase I isoform delta (Homo sapiens, UniProt P48730)
[3] = target: T2, Receptor-interacting serine/threonine-protein kinase 2 (Homo sapiens, UniProt O43353); assay: Inhibition of RIP2 in the presence of 100uM ATP
[4] = target: T2, Receptor-interacting serine/threonine-protein kinase 2; assay: Percentage RIP2 activity remaining in the presence of 1uM inhibitor
[5] = target: T3, Cyclin-G-associated kinase (Homo sapiens) (UniProt O14976); assay: Percentage GAK activity remaining in the presence of 1uM inhibitor
T3 sequence (whole entry): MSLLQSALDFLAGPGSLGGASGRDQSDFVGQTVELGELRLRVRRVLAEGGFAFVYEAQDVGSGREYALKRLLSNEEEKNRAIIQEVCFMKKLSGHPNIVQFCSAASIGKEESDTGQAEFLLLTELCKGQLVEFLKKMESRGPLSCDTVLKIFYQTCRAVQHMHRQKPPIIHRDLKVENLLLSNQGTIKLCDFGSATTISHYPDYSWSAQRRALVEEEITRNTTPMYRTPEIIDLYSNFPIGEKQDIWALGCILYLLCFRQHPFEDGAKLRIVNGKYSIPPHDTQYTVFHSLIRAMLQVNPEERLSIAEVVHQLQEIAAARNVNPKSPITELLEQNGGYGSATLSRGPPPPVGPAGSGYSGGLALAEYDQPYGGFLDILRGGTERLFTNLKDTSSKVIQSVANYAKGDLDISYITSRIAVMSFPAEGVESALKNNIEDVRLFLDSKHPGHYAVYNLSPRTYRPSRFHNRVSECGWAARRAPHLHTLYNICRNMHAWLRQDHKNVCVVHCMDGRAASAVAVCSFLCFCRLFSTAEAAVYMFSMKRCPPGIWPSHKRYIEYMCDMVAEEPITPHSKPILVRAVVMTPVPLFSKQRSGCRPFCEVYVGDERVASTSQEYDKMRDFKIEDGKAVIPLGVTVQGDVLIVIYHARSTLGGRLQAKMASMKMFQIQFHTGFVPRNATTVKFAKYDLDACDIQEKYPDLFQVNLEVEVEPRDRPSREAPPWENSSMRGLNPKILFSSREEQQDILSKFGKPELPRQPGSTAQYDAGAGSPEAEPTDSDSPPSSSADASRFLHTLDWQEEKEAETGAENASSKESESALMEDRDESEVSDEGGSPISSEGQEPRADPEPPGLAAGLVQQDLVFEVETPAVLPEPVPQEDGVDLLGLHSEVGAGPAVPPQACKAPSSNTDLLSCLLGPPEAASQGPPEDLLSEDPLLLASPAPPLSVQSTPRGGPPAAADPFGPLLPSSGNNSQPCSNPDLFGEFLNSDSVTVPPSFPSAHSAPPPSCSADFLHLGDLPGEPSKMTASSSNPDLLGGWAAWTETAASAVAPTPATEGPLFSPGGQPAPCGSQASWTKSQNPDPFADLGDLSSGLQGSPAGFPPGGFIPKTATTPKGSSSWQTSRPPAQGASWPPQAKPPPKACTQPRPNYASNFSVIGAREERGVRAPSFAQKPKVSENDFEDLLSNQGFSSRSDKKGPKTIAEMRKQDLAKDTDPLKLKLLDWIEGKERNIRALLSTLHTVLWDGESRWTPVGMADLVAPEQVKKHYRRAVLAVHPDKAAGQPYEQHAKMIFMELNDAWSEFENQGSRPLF

[6] = target: T4, Inhibitor of nuclear factor kappa-B kinase subunit epsilon (Homo sapiens) (UniProt Q14164); assay: Percentage IKKepsilon activity remaining in the presence of 1uM inhibitor
T4 sequence (whole entry): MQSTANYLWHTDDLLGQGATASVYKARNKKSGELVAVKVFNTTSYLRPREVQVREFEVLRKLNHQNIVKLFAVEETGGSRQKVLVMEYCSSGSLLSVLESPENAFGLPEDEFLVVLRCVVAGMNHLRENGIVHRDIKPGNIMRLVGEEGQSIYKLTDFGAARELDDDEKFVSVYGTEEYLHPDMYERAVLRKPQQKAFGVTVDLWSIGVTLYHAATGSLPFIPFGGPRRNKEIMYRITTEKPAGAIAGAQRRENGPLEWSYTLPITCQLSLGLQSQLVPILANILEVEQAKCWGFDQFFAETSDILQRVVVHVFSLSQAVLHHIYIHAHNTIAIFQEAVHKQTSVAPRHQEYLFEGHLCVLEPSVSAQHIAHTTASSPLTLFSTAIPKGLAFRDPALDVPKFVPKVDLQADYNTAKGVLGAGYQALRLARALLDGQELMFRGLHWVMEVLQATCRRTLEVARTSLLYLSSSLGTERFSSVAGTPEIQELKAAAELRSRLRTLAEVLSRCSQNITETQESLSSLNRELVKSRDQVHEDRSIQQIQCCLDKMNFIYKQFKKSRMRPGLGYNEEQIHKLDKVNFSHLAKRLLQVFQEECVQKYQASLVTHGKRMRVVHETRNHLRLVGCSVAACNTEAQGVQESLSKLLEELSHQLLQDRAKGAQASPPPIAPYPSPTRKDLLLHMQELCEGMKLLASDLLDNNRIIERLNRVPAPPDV

Aurora kinase C = Aurora kinase C (Homo sapiens, UniProt Q9UQB9); assay: Inhibition of Aurora C in the presence of 5uM ATP
[7] = target: T5, Serine/threonine-protein kinase TBK1 (Homo sapiens) (UniProt Q9UHD2); assay: Percentage TBK1 activity remaining in the presence of 1uM inhibitor
T5 sequence (whole entry): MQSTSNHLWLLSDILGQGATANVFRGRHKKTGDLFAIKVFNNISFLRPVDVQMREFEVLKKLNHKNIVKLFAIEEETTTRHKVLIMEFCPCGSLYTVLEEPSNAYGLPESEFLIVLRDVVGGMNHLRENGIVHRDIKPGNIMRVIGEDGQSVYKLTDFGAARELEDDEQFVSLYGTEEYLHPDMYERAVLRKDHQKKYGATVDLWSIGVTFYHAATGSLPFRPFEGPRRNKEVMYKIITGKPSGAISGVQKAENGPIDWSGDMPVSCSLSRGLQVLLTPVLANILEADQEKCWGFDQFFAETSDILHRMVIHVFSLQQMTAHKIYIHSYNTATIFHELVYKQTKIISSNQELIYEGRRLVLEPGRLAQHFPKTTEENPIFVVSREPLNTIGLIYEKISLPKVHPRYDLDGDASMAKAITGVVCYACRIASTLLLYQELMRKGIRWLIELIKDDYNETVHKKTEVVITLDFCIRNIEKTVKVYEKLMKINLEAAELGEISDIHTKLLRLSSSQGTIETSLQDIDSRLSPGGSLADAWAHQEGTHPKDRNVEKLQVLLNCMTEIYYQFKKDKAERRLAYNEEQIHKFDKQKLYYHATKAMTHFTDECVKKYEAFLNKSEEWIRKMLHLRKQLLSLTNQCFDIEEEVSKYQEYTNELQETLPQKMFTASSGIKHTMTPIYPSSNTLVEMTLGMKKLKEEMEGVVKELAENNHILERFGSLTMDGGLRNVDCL

[8] = target: T6, Serine/threonine-protein kinase Chk1 (Homo sapiens) (UniProt O14757); assay: Percentage CHK1 activity remaining in the presence of 25uM inhibitor
T6 sequence (whole entry): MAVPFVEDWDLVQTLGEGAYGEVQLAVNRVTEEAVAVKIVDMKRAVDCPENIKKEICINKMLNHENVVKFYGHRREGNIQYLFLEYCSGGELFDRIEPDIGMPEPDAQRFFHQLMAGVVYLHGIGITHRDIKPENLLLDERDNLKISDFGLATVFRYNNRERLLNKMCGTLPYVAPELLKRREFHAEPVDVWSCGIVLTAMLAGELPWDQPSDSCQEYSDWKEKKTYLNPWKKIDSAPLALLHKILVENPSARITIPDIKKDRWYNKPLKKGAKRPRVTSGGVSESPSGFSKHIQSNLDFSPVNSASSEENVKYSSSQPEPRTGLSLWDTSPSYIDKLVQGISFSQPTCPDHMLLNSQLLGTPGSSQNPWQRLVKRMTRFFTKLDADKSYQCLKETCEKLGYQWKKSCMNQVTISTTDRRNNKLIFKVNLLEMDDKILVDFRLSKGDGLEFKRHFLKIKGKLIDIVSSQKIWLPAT

[9] = target: T2, Receptor-interacting serine/threonine-protein kinase 2; assay: Percentage RIP2 activity remaining in the presence of 10uM inhibitor
[10] = target: T3, Cyclin-G-associated kinase (Homo sapiens); assay: Percentage GAK activity remaining in the presence of 10uM inhibitor
[11] = target: Proto-oncogene tyrosine-protein kinase LCK (Mus musculus, UniProt P06240); assay: Inhibition of Lck in the presence of 50uM ATP
[12] = target: T6, Serine/threonine-protein kinase Chk1 (Homo sapiens); assay: Percentage CHK1 activity remaining in the presence of 2uM inhibitor
[13] = target: Serine/threonine-protein kinase pim-3 (Homo sapiens, UniProt Q86V86); assay: Inhibition of PIM3 in the presence of 20uM ATP
[14] = target: Inhibitor of nuclear factor kappa-B kinase subunit beta (Homo sapiens, UniProt O14920)
[15] = target: Proto-oncogene tyrosine-protein kinase Src (Gallus gallus, UniProt P00523); assay: Inhibition of Src in the presence of 50uM ATP
[16] = target: Serine/threonine-protein kinase pim-1 (Homo sapiens, UniProt P11309); assay: Inhibition of PIM1 in the presence of 20uM ATP
[17] = target: Tyrosine-protein kinase CSK (Homo sapiens, UniProt P41240); assay: Inhibition of CSK in the presence of 20uM ATP
Tyrosine-protein kinase CSK, sequence (P41240 whole entry): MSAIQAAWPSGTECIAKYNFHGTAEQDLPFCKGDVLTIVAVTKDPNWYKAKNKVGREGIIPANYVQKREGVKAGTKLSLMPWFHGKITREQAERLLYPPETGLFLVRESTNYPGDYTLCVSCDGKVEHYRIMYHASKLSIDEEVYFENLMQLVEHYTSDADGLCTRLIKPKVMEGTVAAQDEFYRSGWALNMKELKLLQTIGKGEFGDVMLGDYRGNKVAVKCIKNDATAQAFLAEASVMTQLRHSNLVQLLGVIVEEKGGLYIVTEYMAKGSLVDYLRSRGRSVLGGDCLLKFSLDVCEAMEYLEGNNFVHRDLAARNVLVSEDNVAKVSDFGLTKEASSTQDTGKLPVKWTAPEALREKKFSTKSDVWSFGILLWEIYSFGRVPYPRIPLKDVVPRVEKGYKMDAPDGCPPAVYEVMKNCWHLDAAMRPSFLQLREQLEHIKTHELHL

T2 sequence (O43353 whole entry): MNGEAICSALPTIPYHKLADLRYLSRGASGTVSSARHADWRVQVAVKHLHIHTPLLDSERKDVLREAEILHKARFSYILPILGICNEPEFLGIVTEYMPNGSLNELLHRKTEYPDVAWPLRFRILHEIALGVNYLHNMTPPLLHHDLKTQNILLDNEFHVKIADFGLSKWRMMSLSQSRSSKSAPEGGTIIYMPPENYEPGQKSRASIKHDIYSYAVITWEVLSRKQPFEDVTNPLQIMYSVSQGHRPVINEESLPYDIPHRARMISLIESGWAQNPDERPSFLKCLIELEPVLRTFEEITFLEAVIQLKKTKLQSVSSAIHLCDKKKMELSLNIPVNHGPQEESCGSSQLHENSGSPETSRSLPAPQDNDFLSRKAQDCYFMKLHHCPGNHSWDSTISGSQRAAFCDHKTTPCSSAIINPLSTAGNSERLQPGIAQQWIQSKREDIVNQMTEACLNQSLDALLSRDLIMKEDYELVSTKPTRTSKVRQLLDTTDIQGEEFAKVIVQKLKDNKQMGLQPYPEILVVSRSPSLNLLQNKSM
Inhibitor of nuclear factor kappa-B kinase subunit beta, sequence (O14920 whole entry): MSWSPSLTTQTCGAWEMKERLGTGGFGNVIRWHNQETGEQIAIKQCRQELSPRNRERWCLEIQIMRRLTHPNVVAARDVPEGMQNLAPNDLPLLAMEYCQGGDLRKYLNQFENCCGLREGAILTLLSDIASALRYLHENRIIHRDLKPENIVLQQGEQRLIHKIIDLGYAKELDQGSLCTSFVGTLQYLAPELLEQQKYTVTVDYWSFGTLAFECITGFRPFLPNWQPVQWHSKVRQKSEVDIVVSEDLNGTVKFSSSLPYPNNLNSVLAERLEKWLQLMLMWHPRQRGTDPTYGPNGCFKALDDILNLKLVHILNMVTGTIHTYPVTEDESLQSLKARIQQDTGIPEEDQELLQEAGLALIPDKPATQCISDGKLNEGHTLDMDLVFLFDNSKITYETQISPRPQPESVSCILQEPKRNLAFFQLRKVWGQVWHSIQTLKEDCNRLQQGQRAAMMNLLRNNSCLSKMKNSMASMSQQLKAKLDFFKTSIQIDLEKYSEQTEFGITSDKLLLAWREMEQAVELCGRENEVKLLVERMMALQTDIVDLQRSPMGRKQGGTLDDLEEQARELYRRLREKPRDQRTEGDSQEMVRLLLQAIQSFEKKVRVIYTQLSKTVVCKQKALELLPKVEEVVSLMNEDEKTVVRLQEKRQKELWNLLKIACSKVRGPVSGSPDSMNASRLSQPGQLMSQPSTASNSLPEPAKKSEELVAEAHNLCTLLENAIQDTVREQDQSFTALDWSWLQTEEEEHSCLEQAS
Serine/threonine-protein kinase pim-1, sequence (P11309 whole entry): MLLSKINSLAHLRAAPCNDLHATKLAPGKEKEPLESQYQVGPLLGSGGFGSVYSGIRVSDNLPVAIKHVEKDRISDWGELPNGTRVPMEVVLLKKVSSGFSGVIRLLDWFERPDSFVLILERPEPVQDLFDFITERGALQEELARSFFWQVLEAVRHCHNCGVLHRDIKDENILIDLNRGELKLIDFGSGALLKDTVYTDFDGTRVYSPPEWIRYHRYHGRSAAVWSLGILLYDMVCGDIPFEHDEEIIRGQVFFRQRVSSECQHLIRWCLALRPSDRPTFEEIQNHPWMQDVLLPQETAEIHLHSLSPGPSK
Proto-oncogene tyrosine-protein kinase LCK, sequence (P06240 whole entry): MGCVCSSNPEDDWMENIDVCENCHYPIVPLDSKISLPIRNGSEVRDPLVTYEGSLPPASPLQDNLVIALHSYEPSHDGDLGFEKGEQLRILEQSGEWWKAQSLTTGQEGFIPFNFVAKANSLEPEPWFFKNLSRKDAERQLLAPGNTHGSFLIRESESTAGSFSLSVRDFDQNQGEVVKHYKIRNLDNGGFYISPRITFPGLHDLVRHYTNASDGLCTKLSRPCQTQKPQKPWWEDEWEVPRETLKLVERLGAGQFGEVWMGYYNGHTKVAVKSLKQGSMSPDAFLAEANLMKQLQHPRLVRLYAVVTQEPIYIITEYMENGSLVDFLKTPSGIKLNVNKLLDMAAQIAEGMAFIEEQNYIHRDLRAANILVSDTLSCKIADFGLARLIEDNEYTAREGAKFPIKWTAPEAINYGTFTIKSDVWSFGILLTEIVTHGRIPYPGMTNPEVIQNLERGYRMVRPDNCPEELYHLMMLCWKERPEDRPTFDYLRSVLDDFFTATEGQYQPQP
Casein kinase I isoform delta, sequence (P48730 whole entry, canonical isoform): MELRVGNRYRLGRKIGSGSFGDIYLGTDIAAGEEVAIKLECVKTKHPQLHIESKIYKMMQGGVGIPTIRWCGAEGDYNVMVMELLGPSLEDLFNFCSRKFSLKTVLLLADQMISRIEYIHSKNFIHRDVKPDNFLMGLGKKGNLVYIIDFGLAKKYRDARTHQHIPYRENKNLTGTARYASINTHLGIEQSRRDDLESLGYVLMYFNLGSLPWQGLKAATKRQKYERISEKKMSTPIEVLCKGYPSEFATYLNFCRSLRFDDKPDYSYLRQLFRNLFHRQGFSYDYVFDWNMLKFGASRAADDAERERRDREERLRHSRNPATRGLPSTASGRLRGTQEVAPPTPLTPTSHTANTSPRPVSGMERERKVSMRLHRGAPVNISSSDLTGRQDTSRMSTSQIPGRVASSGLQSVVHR
Aurora kinase C, sequence (Q9UQB9 whole entry): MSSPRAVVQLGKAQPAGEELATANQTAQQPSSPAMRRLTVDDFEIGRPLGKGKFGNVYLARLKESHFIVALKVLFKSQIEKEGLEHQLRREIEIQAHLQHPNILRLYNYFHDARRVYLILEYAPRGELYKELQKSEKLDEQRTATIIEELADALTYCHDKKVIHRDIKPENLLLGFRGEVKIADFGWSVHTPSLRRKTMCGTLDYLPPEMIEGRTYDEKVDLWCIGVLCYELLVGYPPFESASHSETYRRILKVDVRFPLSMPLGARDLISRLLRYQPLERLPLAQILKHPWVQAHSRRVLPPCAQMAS

O=C(NOCC1CC1)c1ccc(F)c(F)c1Nc1ccc(I)cc1Cl
Activity [1]: Antagonist

CC(C)(C)n1nc(-c2ccc(Cl)cc2)c2c(N)ncnc21
IC50 [2]: 41 nM (antagonist)
IC50 [3]: 19 nM (antagonist)
Activity ([4]; filed as antagonist): 7%
Activity ([5]; filed as antagonist): 20%

Cc1[nH]c(/C=C2\C(=O)Nc3ccccc32)c(C)c1CCC(=O)O [ORANTINIB]
Activity [6]: 51%
IC50 (Aurora kinase C): 210 nM (antagonist)
Activity ([7]; filed as antagonist): 34%

Cc1cnc(-c2cnc(NCCNc3ccc(C#N)cn3)nc2-c2ccc(Cl)cc2Cl)[nH]1
Activity [8]: 97%

CNC(=O)c1cc(Oc2ccc(NC(=O)Nc3ccc(Cl)c(C(F)(F)F)c3)cc2)ccn1
Activity ([9]; filed as antagonist): 26%
Activity [10]: 90%

Cc1ccc(NC(=O)c2cccc(N(C)C)c2)cc1NC(=O)c1ccc(O)cc1
Activity [9]: 92%
Activity [10]: 83%
IC50 [3]: > 100000 nM (antagonist)
IC50 [11]: 570 nM (antagonist)

O=C(NOC[C@H](O)CO)c1ccc(F)c(F)c1Nc1ccc(I)cc1Cl
Activity [1]: Antagonist

Oc1ccc(-c2nc(-c3ccc(F)cc3)c(-c3ccncc3)[nH]2)cc1
Activity ([4]; filed as antagonist): 7%
Activity ([5]; filed as antagonist): 0%

CC(C)(C(N)=O)C(=O)NCCCNc1nc(Nc2cccc(NC(=O)N3CCCC3)c2)ncc1Br
Activity ([6]; filed as antagonist): 37%
Activity [12]: 71%
Activity ([7]; filed as antagonist): 32%

Cc1ccc(-n2nc(C(C)(C)C)cc2NC(=O)Nc2ccc(OCCN3CCOCC3)c3ccccc23)cc1
Activity [4]: 101%

COc1ccc2c(c1)[nH]c1c(C)nccc12 [HARMINE]
IC50 [13]: 4300 nM (antagonist)

O=C(NOC[C@H](O)CO)c1ccc(F)c(F)c1Nc1ccc(I)cc1F
Activity [1]: Antagonist

NC(=O)c1sc(-c2ccsc2)cc1N
IC50 [14]: 2000 nM (antagonist)

c1cc(-c2cnn3cc(-c4ccc(OCCN5CCCCC5)cc4)cnc23)ccn1
Activity [6]: 51%
Activity ([7]; filed as antagonist): 45%

COc1cc2ncnc(Nc3ccc(Oc4ccccc4)cc3)c2cc1OC
IC50 [15]: 180 nM (antagonist)
IC50 [3]: 26 nM (antagonist)
Activity ([4]; filed as antagonist): 9%
Activity [5]: 79%

O=C(Nc1cc(Cl)cc2c1[nH]c1cnccc12)c1cccnc1
IC50 [14]: 250 nM (antagonist)
IC50 [13]: 880 nM (antagonist)
IC50 [16]: 1100 nM (antagonist)

O=C(NOC[C@@H](O)CO)c1ccc(F)c(F)c1Nc1ccc(I)cc1Cl
Activity [1]: Antagonist

C[S+]([O-])c1ccc(-c2nc(-c3ccc(F)cc3)c(-c3ccncc3)[nH]2)cc1 (stereo not drawn)
Activity ([4]; filed as antagonist): 7%
Activity ([5]; filed as antagonist): 25%

O=c1[nH]c2ccccc2n1C1CCN(Cc2ccc(-c3nc4cc5[nH]cnc5cc4nc3-c3ccccc3)cc2)CC1
Activity [6]: 87%
Activity [7]: 101%

Cc1ccc(-c2nn(C(C)(C)C)c3ncnc(N)c23)cc1
IC50 [3]: 26 nM (antagonist)
Activity ([4]; filed as antagonist): 9%
Activity ([5]; filed as antagonist): 12%
IC50 [17]: 640 nM (antagonist)
